Reference: ChEMBL document CHEMBL4342420, “Discovery of AM-6494: A Potent and Orally Efficacious β-Site Amyloid Precursor Protein Cleaving Enzyme 1 (BACE1) Inhibitor with in Vivo Selectivity over BACE2” (J Med Chem, 2020)
Each block holds one molecule with its values, some of them ahead of it.

Experiments:
[1] = Stability in human liver microsomes at 1 uM measured after 30 mins in presence of NADPH; assay type: ADME, Microsome; conditions: read-out: Stability
[2] = Stability in rat liver microsomes at 1 uM measured after 30 mins in presence of NADPH; assay type: ADME, Microsome; conditions: read-out: Stability
[3] = Free plasma concentration in depilated mouse at 100 mg/kg, po administered once daily for 13 days measured 24 hrs post-last dose; assay type: ADME, organism-based; conditions: in vivo
[4] = Volume of distribution at steady state in Beagle dog at 1 mg/kg, iv; assay type: ADME, organism-based, Canis lupus familiaris; conditions: in vivo, read-out: Vdss
[5] = Stability in dog liver microsomes at 0.5 uM measured after 30 mins in presence of NADPH; assay type: ADME, Canis lupus familiaris, Microsome; conditions: read-out: Stability
[6] = Clearance in Beagle dog at 1 mg/kg, iv; assay type: ADME, organism-based, Canis lupus familiaris; conditions: in vivo
[7] = Clearance in rat at 1 mg/kg, iv; assay type: ADME, organism-based; conditions: in vivo
[8] = Volume of distribution at steady state in rat at 1 mg/kg, iv; assay type: ADME, organism-based; conditions: in vivo, read-out: Vdss
[9] = Half life in rat at 1 mg/kg, iv; assay type: ADME, organism-based; conditions: in vivo
[10] = AUCt in rat at 3 mg/kg, po; assay type: ADME, organism-based; conditions: in vivo
[11] = Oral bioavailability in rat at 3 mg/kg; assay type: ADME, organism-based; conditions: in vivo
[12] = Half life in Beagle dog at 1 mg/kg, iv; assay type: ADME, organism-based, Canis lupus familiaris; conditions: in vivo
[13] = AUCt in Beagle dog at 10 mg/kg, po; assay type: ADME, organism-based, Canis lupus familiaris; conditions: in vivo
[14] = Oral bioavailability in Beagle dog at 10 mg/kg; assay type: ADME, organism-based, Canis lupus familiaris; conditions: in vivo
[15] = Stability in monkey liver microsomes at 0.5 uM measured after 30 mins in presence of NADPH; assay type: ADME, Macaca mulatta, Microsome; conditions: rhesus monkey, read-out: Stability
[16] = Clearance in monkey at 1 mg/kg, iv; assay type: ADME, organism-based, Macaca mulatta; conditions: rhesus monkey, in vivo
[17] = Volume of distribution at steady state in monkey at 1 mg/kg, iv; assay type: ADME, organism-based, Macaca mulatta; conditions: rhesus monkey, in vivo, read-out: Vdss
[18] = Half life in monkey at 1 mg/kg, iv; assay type: ADME, organism-based, Macaca mulatta; conditions: rhesus monkey, in vivo
[19] = AUCt in cynomolgus monkey at 3 mg/kg, po; assay type: ADME, organism-based, Macaca fascicularis; conditions: in vivo
[20] = Oral bioavailability in cynomolgus monkey at 3 mg/kg; assay type: ADME, organism-based, Macaca fascicularis; conditions: in vivo
[21] = Free plasma concentration in depilated mouse at 10 mg/kg, po administered once daily for 13 days measured 24 hrs post-last dose; assay type: ADME, organism-based; conditions: in vivo
[22] = Free plasma concentration in depilated mouse at 30 mg/kg, po administered once daily for 13 days measured 24 hrs post-last dose; assay type: ADME, organism-based; conditions: in vivo
[23] = Free plasma concentration in depilated mouse at 120 mg/kg, po administered once daily for 13 days measured 24 hrs post-last dose; assay type: ADME, organism-based; conditions: in vivo

SMILES: C[C@]1(c2cc(NC(=O)c3ccc(Cl)cn3)cc(F)c2F)N=C(N)S[C@@]2(C(N)=O)C[C@H]21
microsomal CLint at 1 µM [1]: < 14 µL/min/mg | microsomal CLint at 1 µM [2]: < 14 µL/min/mg

SMILES: NC1=N[C@@]2(CO1)c1cc(-c3cccnc3F)ccc1Oc1c2cc(C2=CCCOC2)nc1F
Cp(f) [21]: 38 nM | Cp(f) [22]: 88 nM | Cp(f) [23]: 328 nM

Now from value to molecule:

microsomal CLint at 1 µM [1]: 76 µL/min/mg | microsomal CLint at 1 µM [2]: 87 µL/min/mg
SMILES: C#CCOc1cnc(C(=O)Nc2cc(F)c(F)c([C@@]3(C)N=C(N)S[C@@]4(CF)C[C@H]43)c2)cn1

microsomal CLint at 1 µM [1]: 29 µL/min/mg | microsomal CLint at 1 µM [2]: 156 µL/min/mg
SMILES: COC[C@]12C[C@H]1[C@@](C)(c1cc(NC(=O)c3cnc(OCCC(F)(F)F)cn3)cc(F)c1F)N=C(N)S2

microsomal CLint at 1 µM [1]: 41 µL/min/mg | microsomal CLint at 1 µM [2]: 84 µL/min/mg | Cp(f) [3]: 32 nM | Vd [4]: 3.2 L/kg | microsomal CLint at 0.5 µM [5]: 62 µL/min/mg | clearance [6]: 15 mL/min/kg | clearance [7]: 21.7 mL/min/kg | Vd [8]: 1.7 L/kg | half-life [9]: 1.5 h | AUCt [10]: 2.4 µM·h | bioavailability [11]: 48% | half-life [12]: 2 h | AUCt [13]: 22 µM·h | bioavailability [14]: 100% | microsomal CLint at 0.5 µM [15]: 146 µL/min/mg | clearance [16]: 35 mL/min/kg | Vd [17]: 17 L/kg | half-life [18]: 8.3 h | AUCt [19]: 2.3 µM·h | bioavailability [20]: 28%
SMILES: C#CCOc1cnc(C(=O)Nc2cc(F)c(F)c([C@@]3(C)N=C(N)S[C@@]4(COC)C[C@H]43)c2)cn1
